Tests used:
[1] = target: T1, Adrenergic receptor alpha-2 (Homo sapiens, UniProt P08913+P18825+P18089); test: Tested for its inhibitory activity against alpha-2 adrenoceptor in guinea pig ileum; assay type: tissue-based, Cavia porcellus; details: target entry is the homologue from another species
T1 sequence (P08913 whole entry): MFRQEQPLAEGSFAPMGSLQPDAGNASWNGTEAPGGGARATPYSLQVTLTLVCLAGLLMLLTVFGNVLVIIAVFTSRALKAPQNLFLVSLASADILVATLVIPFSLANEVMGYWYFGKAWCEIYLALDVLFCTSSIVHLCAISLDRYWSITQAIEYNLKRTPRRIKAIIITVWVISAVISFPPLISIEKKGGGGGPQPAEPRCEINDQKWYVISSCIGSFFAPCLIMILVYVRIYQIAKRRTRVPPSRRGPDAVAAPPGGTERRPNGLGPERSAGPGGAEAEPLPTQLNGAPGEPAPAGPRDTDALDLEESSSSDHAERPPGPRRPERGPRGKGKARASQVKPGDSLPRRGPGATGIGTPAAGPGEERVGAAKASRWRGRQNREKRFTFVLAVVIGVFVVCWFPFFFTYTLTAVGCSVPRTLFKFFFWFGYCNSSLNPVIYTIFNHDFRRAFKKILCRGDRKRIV
T1 sequence (P18825 whole entry): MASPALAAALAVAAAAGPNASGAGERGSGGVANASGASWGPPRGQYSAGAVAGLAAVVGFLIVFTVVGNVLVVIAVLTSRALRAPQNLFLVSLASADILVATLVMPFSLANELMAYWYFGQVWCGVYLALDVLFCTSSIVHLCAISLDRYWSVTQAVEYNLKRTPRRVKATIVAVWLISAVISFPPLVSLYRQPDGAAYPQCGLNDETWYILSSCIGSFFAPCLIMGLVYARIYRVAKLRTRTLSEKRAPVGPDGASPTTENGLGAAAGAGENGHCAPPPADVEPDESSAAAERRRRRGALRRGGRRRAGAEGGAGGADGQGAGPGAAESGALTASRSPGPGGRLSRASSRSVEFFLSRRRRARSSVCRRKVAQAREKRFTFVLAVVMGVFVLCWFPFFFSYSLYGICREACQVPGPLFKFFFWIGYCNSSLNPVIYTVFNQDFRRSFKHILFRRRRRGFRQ
T1 sequence (P18089 whole entry): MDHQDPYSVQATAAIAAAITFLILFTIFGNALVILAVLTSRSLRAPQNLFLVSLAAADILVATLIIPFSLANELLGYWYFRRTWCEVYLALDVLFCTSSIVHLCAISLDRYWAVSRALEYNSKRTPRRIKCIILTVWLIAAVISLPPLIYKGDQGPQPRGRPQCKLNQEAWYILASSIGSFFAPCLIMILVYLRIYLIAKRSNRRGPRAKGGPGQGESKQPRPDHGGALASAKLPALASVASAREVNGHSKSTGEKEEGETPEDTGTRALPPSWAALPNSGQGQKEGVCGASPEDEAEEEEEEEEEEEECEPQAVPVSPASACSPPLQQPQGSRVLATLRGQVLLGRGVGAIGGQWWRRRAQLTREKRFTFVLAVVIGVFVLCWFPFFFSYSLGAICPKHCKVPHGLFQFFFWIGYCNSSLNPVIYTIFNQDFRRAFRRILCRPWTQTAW

[2] = target: T2, Adrenergic receptor alpha-1 (Rattus norvegicus, UniProt P15823+P23944+P43140); test: Tested for its binding affinity against alpha-1 receptor in rat brain membrane; assay type: cell membranes
T2 sequence (P15823 whole entry): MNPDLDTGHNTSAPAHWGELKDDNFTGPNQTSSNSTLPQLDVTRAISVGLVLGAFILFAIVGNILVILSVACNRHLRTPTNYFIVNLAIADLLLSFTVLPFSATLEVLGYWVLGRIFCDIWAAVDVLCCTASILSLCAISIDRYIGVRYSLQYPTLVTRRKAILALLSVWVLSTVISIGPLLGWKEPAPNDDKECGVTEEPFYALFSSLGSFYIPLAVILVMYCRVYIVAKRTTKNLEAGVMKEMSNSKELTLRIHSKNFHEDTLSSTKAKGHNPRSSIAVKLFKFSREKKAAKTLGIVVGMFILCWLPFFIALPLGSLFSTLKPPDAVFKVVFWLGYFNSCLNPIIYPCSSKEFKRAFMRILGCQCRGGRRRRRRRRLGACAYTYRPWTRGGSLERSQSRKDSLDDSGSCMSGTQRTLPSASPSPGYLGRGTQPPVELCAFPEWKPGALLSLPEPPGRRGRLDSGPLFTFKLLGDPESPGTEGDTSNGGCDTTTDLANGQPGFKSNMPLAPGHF
T2 sequence (P23944 whole entry): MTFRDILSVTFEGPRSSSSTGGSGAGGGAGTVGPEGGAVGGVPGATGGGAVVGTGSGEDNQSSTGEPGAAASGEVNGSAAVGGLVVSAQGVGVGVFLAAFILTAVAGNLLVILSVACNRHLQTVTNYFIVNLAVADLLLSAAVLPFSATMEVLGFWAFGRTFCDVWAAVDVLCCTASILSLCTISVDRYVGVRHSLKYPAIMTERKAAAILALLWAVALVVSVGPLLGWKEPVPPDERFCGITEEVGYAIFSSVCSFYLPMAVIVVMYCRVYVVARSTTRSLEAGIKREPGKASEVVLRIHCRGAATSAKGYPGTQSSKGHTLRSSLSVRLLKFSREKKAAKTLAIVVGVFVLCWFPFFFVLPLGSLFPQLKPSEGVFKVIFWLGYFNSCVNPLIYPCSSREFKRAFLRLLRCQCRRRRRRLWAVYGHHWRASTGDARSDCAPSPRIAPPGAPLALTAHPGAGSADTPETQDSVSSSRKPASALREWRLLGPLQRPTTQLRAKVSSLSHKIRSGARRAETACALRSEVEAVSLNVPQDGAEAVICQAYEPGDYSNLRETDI
T2 sequence (P43140 whole entry): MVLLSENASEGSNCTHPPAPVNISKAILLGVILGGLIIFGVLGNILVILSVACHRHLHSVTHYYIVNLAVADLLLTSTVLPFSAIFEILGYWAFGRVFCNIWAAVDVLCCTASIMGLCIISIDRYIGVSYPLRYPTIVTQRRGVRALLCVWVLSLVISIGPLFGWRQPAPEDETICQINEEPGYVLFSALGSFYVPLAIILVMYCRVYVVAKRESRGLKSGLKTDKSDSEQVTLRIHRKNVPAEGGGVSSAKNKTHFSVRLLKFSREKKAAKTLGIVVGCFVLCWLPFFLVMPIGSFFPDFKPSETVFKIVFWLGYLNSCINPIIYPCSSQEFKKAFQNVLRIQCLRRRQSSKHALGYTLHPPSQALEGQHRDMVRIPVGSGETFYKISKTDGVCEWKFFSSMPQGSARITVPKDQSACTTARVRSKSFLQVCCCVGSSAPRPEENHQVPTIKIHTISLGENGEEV

[3] = target: Adrenergic receptor alpha (Rattus norvegicus) (UniProt P15823+P23944+P43140+P22086+P19328+P22909); test: Ratio between EC50 values of alpha 1 and alpha 2 receptors; assay type: protein assay
[4] = Ratio between IC50 values of alpha 1 and alpha 2 receptors

CC(c1c[nH]cn1)c1cccc2ccccc12 (stereo in doubt; S-(+)-2)
EC50 [1]: 11 nM | Ki [2]: 461 nM

Cl.c1ccc2c(Cc3c[nH]cn3)cccc2c1
Ratio [3]: 117 | EC50 [1]: 18 nM | Ratio [4]: 2.7 | Ki [2]: 188 nM

CC(c1c[nH]cn1)c1cccc2ccccc12 (stereo in doubt; S-(-)-2)
Ki [2]: 536 nM

CC(c1c[nH]cn1)c1cccc2ccccc12 (stereo in doubt; 2)
EC50 [1]: 9 nM | Ki [2]: 310 nM

COC(c1c[nH]cn1)c1cccc2ccccc12.Cl (configuration not stated)
EC50 [1]: 32992 nM | Ratio [4]: > 5.8 | Ki [2]: > 50000 nM

Cc1cccc(C(C)c2c[nH]cn2)c1C (configuration not stated) [MEDETOMIDINE]
Ki [2]: 1102 nM

Cl.OC(c1c[nH]cn1)c1cccc2ccccc12 (configuration not stated)
Ratio [3]: 33.8 | EC50 [1]: 375 nM | Ratio [4]: 1.05 | Ki [2]: 9255 nM
